Data on six compounds can be found in US8466171B2, “Fused heterocyclic compounds useful as modulators of nuclear hormone receptor function” (Bristol-Myers Squibb Company, priority 2007, dated 2013).

For one data set, the target named is T1, wild type AR (Homo sapiens, UniProt P10275).
T1 sequence (P10275 1-920 Q868H): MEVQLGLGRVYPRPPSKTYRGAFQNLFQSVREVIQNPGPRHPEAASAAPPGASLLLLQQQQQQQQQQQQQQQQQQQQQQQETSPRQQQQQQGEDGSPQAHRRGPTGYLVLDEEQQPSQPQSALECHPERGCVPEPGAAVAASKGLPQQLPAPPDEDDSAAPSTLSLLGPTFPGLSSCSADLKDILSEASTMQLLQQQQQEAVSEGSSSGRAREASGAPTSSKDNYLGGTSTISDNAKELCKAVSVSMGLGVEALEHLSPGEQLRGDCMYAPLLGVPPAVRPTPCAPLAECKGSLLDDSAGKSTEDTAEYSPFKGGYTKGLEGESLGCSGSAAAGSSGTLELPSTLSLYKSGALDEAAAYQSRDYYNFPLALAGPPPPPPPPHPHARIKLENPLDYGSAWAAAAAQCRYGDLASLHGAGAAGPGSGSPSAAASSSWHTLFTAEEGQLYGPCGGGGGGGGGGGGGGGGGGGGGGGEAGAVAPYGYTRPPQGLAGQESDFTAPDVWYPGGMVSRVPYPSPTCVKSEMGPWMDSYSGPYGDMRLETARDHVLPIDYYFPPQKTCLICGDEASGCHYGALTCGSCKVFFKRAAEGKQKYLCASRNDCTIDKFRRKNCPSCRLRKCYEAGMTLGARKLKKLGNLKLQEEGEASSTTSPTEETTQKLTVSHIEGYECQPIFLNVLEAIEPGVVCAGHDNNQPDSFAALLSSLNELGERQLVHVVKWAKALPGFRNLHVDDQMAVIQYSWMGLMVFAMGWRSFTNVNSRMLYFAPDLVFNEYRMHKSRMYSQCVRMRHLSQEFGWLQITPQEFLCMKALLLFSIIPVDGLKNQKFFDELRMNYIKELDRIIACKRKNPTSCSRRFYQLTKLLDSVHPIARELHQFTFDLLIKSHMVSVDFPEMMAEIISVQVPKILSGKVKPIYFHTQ
Briefly: AR Binding Assay (whole cell, MDA-MB-453, competition with [3H]-DHT). To be noted: MDA-MB-453 cells, competition with 2 nM [3H]-DHT, Cheng-Prusoff. On the procedure:
For the whole cell binding assay, human breast adenocarcinoma MDA-MB-453 cells (American Type Culture Collection, Rockville, Md., ATCC #: HTB-131), expressing a functional endogenous wild type AR, are grown to near confluency in T-225 tissue culture flasks containing Dulbecco's Modified Eagle Medium (DMEM) (Mediatech CAT #45000-668) supplemented with 10% fetal bovine serum (FBS) (Invitrogen/GIBCO Life Science). In order to remove any endogenous ligand that might be complexed with the receptor in the cells, the tissue culture media is removed and the cells are incubated overnight at 37° C. in serum-free DMEM. The next day, cells are rinsed with magnesium and calcium free Phosphate Buffered Saline (PBS) (Invitrogen/GIBCO Life Science), harvested using Cell Stripper Buffer (Mediatech) and re-suspended in serum-free DMEM to achieve a final assay concentration of 4×10^5 cells/well of a 96-well assay plate. […] After the remaining media is removed, cells are washed three times with PBS and harvested onto UniFilter GF/B plates (PerkinElmer).
Two replicates are used for each sample. After 90 minutes at room temperature, cells are harvested by filtering through a GF/B filter plate (PerkinElmer) followed by washing with ice-cold 1×PBS (without calcium and magnesium) to remove unbound label. […] After correcting for non-specific binding, IC50 values are determined. The IC50 value is defined as the concentration of competing ligand needed to reduce specific binding by 50%. […] The Ki values are determined by application of the Cheng-Prusoff equation to the IC50 values where: […]
See e.g., D. Rodbard, Mathematics and Statistics of Ligand Assays: An Illustrated Guide: In: J. Langon and J. J. Clapp, eds., Ligand Assay, Masson Publishing U.S.A., Inc., New York, pp. 45-99 (1981).

The next data set concerns the target T2, androgen receptor (AR) (Homo sapiens, UniProt P10275).
T2 sequence (P10275 1-920): T1 sequence (P10275 1-920 Q868H) with H868Q
Description: MDA-MB-453 Androgen Receptor Transactivation Assay. It counts as cell-based. To be noted: MDA-MB-453 cells, PSA-Luc reporter, 3 nM DHT, 48 hour incubation. The text has this: Compounds can be tested in a cell based transactivation assay used to measure the antagonism of androgen receptor (AR) transcriptional activity. […] The human breast adenocarcinoma MDA-MB-453 cell line (American Type Culture Collection, Rockville, Md., ATCC#: HTB-131), expressing a functional endogenous wild type AR, was transiently transfected with a reporter plasmid and tested for AR dependent transactivation activity in the absence or presence of test compounds. The pGL3 PSA-Luc reporter plasmid is comprised of the cDNA for the firefly luciferase gene and the upstream promoter sequences containing the androgen response elements (AREs) of the prostate specific antigen (PSA). This plasmid functions as a reporter for the transcription-modulating activity of the AR. In order to detect antagonists, the transactivation assay is conducted in the presence of constant concentration of the natural AR hormone (DHT) to induce a defined reporter signal. Addition of increasing concentrations of the suspected antagonist will decrease the reporter signal (luciferase activity).
MDA-MB-453 and 22 RV1 cells were maintained in DMEM (Cellgro, Cat. #10-014-CM) or RPMI 1640 (Gibco Cat. #11875-085) respectively and supplemented with 10% FBS (Invitrogen/GIBCO Life Science). Cells were bulk transfected in flasks with 1.3 ug/ml pGL3 PSA-Luc plasmid by using the Lipofectamine 2000 Reagent (Invitrogen, Cat. #11668-019) and serum-free Opti-MEM I media (Invitrogen, Cat#31985-070) according to the manufacturer's optimized conditions. Transfection was conducted at 37° C. with 5% CO2 for 16-18 hours. Following transfection, cells are washed, treated with trypsin, counted, and seeded in a 96-well plate at 30,000 cells per well in DMEM containing 10% Charcoal/Dextran Treated Fetal Bovine Serum (Gibco Cat. #11054-020) for MDA-MB-453 cells or RPMI 1640 (Gibco Cat. #110835) containing 10% FBS (Invitrogen/GIBCO Life Science) for 22 RV1 cells.
Following transfection, cells were incubated in the absence (blank) or presence (control) of 3 nM DHT (Sigma, Cat. #A-8380) and in the presence or absence of the standard antiandrogen bicalutamide or test compounds ranging in concentrations from 10^−10 to 10^−5M. Duplicates were used for each sample. The compound dilutions were performed by the Tecan Genesis (Tecan, Triangle Park, N.C.). After a 48 hour incubation, luciferase activity was measured using the Steady-Glo Luciferase Assay System (Promega, Cat. #E2550) according to manufacturer's specifications and luminescence was measured on a Packard TopCount (PerkinElmer). For each luciferase sample reading, the percent control (in absence of compounds) was calculated as: % Control=100×[averagesample−averageblank]/[averagecontrol−averageblank] Data was plotted and the IC50 value was defined as the concentration of compound that inhibited 50% of the luciferase activity for the controls.

In data set [1] the test system is immature castrated rats. To be noted: cited from earlier work; for EC50 (increase in organ weight): immature castrated rats, dosing for 3 days.
For data set [2], the system named is immature castrated rats. Briefly: Immature Rat Prostate Weight (IRPW) Assay. To be noted: TP versus free T. It counts as in vivo. The text has this:
The activity of compounds of Formula (I) as AR antagonists can be investigated in an immature male rat model, as described in L. G. Hershberger et al., Proc. Soc.
Male sexual accessory organs, such as the prostate and seminal vesicles, play an important role in reproductive function. These glands are stimulated to grow and are maintained in size and secretory function by the continued presence of serum testosterone (T), which is the major serum androgen (>95%) produced by the Leydig cells in the testis under the control of the pituitary luteinizing hormone (LH) and follicle stimulating hormone (FSH). […] Adrenal androgens also contribute about 20% of total DHT in the rat prostate, compared to 40% of that in 65-year-old men. […] However, this is not a major pathway, since in both animals and humans, castration leads to almost complete involution of the prostate and seminal vesicles without concomitant adrenalectomy. […] […] […] Since the male sex organs are the tissues most responsive to modulation of the androgen activity, this model is used to determine the androgen dependent growth of the sex accessory organs in immature castrated rats.
Male immature rats (19-20 days old Sprague-Dawley, Harlan Sprague-Dawley) are castrated under metofane anesthesia. […] Experimental groups are as follows:
At the end of the 3-day treatment, the animals are sacrificed, and the ventral prostate weighed. […]

Positions count from the first letter of the chain named.

Broadly, the Ki is the dissociation constant of the complex between target and ligand, obtained from inhibition or displacement. A high value points to weaker binding. The IC50 is the point on the concentration scale where inhibition reaches its midpoint.

As to `N#Cc1ccc(N2C[C@H]3[C@H]4O[C@H]([C@@H]5O[C@@H]54)[C@H]3S2(=O)=O)cc1C(F)(F)F` [Example 9, 4-((1R,2S,6S,7R,8R,10R)-3,3-dioxido-9,11-dioxa-3-thia-4-azatetracyclo[5.3.1.0^2,6.0^8,10]undec-4-yl)-2-(trifluoromethyl)benzonitrile], the Ki at wild type AR is 92 nM. Besides, on androgen receptor (AR), the IC50 is 2640 nM.
In turn, `N#Cc1ccc(N2C[C@H]3[C@H]([C@H]4O[C@@H]3C[C@H]4F)S2(=O)=O)cc1C(F)(F)F` [Example 14, 4-((1S,2R,6R,7R,9R)-9-fluoro-3,3-dioxido-10-oxa-3-thia-4-azatricyclo[5.2.1.0^2,6]dec-4-yl)-2-(trifluoromethyl)benzonitrile] gave a Ki at wild type AR of 11 nM. On androgen receptor (AR), this compound came in with an IC50 of 144 nM.
The corresponding values for `COC(=O)N[C@H]1C[C@@H]2O[C@H]1[C@H]1CN(c3ccc(C#N)c(C(F)(F)F)c3)S(=O)(=O)[C@H]12` [Example 40i, methyl((1S,2R,6R,7S,8S)-4-(4-cyano-3-(trifluoromethyl)phenyl)-3,3-dioxido-10-oxa-3-thia-4-azatricyclo[5.2.1.0^2,6]dec-8-yl)carbamate] are 46 nM and 977 nM.
With `COC(=O)N[C@@H]1C[C@H]2O[C@@H]1[C@H]1[C@@H]2CN(c2ccc(C#N)c(C(F)(F)F)c2)S1(=O)=O` [Example 41i, methyl((1S,2R,6R,7R,9R)-4-(4-cyano-3-(trifluoromethyl)phenyl)-3,3-dioxido-10-oxa-3-thia-4-azatricyclo[5.2.1.0^2,6]dec-9-yl)carbamate], the Ki on wild type AR was 354 nM. In addition, on androgen receptor (AR), the IC50 was 8250 nM.
As for `C[C@]12CC[C@H]3[C@@H](CCC4=CC(=O)CC[C@@]43C)[C@@H]1CC[C@@H]2O` [T, testosterone], the “serum concentrations of T and DHT relative to that of TP” value in the data set with immature castrated rats [1] (2 hours after subcutaneous injection) is 5 times. Also, the “EC50 (increase in organ weight)” value in the data set on immature castrated rats [1] is “about 1 mg”.
For the compound `CCC(=O)O[C@H]1CC[C@H]2[C@@H]3CCC4=CC(=O)CC[C@]4(C)[C@H]3CC[C@]12C` [TP, testosterone propionate], the “potency relative to free T” value in the data set with immature castrated rats [2] is 10-30 fold. Moreover, the “EC50 (increase in organ weight)” value with immature castrated rats [1] is recorded as roughly 0.03 mg.
